# Measurements reported in ChEMBL document CHEMBL5465560, “Selectivity Literature for EUbOPEN Chemogenomic Library” (2024).
# How the values were obtained:
# [1] = target: T1, cAMP-dependent protein kinase catalytic subunit PRKX (Homo sapiens) (UniProt P51817); test: Selectivity interaction (KinomeScan (DiscoverX)) EUB0001049a PRKX; settings: at 1 µM
# T1 sequence (whole entry): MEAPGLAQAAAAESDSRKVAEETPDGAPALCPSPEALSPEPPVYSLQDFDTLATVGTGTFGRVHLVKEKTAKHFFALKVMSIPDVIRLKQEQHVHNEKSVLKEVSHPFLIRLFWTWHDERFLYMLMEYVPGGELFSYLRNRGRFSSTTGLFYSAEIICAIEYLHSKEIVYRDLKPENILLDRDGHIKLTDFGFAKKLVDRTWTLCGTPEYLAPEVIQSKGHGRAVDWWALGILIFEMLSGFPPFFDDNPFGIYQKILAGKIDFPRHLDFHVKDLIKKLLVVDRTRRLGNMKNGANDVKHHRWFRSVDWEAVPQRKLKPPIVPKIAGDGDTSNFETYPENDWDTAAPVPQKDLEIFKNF
# [2] = system: Serine/threonine-protein kinase B-raf (Homo sapiens), P15056 [V600E]; test: (§1) Selectivity interaction (KinomeScan (DiscoverX)) EUB0001049a BRAF; settings: at 1 µM
# Sequence of Serine/threonine-protein kinase B-raf (Homo sapiens), P15056 [V600E] (P15056 whole entry V600E): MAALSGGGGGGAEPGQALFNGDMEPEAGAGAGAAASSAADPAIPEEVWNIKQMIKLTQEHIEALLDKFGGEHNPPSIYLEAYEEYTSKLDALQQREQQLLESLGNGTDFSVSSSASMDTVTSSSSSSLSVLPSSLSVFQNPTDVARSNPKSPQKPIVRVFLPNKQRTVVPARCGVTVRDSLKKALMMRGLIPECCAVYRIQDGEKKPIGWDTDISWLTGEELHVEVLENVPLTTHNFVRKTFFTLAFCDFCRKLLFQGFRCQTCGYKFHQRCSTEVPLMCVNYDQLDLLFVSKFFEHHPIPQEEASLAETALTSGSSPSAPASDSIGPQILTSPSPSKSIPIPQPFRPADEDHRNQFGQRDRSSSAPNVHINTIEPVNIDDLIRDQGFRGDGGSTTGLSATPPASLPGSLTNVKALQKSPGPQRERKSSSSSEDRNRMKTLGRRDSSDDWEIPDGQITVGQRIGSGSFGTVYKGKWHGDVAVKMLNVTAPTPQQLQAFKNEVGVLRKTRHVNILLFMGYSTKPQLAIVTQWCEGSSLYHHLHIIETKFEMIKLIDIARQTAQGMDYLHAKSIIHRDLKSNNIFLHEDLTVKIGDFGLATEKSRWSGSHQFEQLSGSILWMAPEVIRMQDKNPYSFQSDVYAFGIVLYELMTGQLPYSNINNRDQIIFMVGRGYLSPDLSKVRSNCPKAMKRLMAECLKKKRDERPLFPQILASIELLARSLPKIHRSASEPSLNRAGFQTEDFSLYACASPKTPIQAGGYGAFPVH
# [3] = target: Serine/threonine-protein kinase B-raf (Homo sapiens) (UniProt P15056); test: as §1; settings: at 1 µM
# Sequence of Serine/threonine-protein kinase B-raf (Homo sapiens) (P15056 whole entry): as the sequence (P15056 whole entry V600E) above, with E600V counted along it
# [4] = target: T2, 3-phosphoinositide-dependent protein kinase 1 (Homo sapiens) (UniProt O15530); test: Selectivity interaction (Kinase panel (literature)) EUB0001199aCl PDPK1; settings: at 1 µM
# T2 sequence (whole entry): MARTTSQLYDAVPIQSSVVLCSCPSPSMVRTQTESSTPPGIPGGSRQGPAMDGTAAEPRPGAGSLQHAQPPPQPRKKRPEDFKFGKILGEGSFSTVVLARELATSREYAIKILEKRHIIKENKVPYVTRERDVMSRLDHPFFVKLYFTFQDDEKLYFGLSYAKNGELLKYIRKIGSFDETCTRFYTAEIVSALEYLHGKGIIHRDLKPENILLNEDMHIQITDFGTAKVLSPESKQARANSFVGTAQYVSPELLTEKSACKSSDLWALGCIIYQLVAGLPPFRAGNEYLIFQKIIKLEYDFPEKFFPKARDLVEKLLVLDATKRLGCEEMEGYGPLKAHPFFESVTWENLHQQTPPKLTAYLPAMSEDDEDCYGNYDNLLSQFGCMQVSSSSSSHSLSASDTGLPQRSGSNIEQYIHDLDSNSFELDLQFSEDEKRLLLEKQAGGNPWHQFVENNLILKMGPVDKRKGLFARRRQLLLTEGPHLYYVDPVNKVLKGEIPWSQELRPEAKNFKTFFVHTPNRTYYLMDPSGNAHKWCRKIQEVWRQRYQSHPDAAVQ
# [5] = target: Insulin receptor-related protein (Homo sapiens) (UniProt P14616); test: Selectivity interaction (KinomeScan (DiscoverX)) EUB0000666a INSRR; settings: at 10 µM
# [6] = target: Serine/threonine-protein kinase Nek4 (Homo sapiens) (UniProt P51957); test: Selectivity interaction (KinomeScan (DiscoverX)) EUB0000666a NEK4; settings: at 10 µM
# Sequence of Serine/threonine-protein kinase Nek4 (Homo sapiens) (P51957 whole entry, looked up): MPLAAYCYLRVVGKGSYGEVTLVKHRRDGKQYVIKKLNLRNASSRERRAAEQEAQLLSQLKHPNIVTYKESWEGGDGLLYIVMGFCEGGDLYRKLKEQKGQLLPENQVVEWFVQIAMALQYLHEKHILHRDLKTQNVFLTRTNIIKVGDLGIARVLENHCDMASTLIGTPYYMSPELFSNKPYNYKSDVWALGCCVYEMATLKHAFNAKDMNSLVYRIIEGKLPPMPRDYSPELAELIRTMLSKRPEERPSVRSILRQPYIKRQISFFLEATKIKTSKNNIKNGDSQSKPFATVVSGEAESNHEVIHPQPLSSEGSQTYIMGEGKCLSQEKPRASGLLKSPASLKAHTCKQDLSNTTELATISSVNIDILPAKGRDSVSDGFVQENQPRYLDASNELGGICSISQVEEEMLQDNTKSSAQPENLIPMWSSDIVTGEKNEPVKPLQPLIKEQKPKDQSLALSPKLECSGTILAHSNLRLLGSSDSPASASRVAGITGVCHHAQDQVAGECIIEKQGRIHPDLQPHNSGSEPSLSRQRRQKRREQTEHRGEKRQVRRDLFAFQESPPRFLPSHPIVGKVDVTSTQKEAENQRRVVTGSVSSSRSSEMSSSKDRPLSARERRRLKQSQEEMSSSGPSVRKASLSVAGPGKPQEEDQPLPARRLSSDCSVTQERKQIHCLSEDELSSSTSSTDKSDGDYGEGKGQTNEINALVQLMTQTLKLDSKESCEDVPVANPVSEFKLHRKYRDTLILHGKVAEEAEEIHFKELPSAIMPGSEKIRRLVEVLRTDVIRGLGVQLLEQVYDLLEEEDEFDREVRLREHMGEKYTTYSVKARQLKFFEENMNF
# [7] = target: Ribosomal protein S6 kinase alpha-4 (Homo sapiens) (UniProt O75676); test: Selectivity interaction (ActivX KiNativ screen (kinase selectivity in THP-1 cell lysates)) EUB0000639a RPS6KA4; type: subcellular; settings: lysate
# Sequence of Ribosomal protein S6 kinase alpha-4 (Homo sapiens) (O75676 whole entry, looked up): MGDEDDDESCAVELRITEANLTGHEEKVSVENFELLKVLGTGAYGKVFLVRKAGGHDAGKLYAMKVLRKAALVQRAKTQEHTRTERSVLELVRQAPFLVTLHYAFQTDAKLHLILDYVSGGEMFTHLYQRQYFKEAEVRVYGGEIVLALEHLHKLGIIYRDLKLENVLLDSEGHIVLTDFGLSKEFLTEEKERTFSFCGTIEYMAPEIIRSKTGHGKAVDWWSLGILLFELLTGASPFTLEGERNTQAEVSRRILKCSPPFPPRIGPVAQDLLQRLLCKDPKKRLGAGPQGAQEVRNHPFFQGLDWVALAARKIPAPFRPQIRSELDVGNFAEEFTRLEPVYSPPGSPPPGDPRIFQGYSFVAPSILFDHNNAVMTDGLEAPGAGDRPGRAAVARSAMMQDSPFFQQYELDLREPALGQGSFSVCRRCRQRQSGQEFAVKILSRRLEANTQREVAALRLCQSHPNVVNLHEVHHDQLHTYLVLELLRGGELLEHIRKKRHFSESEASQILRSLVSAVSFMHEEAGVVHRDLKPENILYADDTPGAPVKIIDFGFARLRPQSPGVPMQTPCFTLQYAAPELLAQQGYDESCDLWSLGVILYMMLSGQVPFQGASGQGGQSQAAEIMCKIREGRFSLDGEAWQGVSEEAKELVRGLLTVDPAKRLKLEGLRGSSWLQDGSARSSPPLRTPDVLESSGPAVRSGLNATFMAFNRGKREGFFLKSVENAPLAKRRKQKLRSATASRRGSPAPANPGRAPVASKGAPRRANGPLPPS
# [8] = target: Serine/threonine-protein kinase 24 (Homo sapiens) (UniProt Q9Y6E0); test: Selectivity interaction (ActivX KiNativ screen (kinase selectivity in THP-1 cell lysates)) EUB0000639a STK24; type: subcellular; settings: lysate, at 1 µM
# [9] = target: Serine/threonine-protein kinase PLK3 (Homo sapiens, UniProt Q9H4B4)
# [10] = target: Serine/threonine-protein kinase pim-1 (Homo sapiens, UniProt P11309); test: Selectivity interaction (KinomeScan (DiscoverX)) EUB0000695a PIM1; settings: at 100 nM
# Sequence of Serine/threonine-protein kinase pim-1 (P11309 whole entry, looked up): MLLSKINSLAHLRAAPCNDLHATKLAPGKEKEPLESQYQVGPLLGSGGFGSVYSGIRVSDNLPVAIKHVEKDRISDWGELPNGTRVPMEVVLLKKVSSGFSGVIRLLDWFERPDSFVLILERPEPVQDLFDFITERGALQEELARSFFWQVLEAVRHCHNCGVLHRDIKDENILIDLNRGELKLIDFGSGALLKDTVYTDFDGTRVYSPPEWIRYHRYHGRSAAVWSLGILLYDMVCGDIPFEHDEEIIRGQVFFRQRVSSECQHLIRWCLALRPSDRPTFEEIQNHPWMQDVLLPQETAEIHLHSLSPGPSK
# [11] = target: T3, Hormonally up-regulated neu tumor-associated kinase (Homo sapiens) (UniProt P57058); test: Selectivity interaction (KinomeScan (DiscoverX)) EUB0000607a HUNK; settings: at 10 µM
# T3 sequence (whole entry): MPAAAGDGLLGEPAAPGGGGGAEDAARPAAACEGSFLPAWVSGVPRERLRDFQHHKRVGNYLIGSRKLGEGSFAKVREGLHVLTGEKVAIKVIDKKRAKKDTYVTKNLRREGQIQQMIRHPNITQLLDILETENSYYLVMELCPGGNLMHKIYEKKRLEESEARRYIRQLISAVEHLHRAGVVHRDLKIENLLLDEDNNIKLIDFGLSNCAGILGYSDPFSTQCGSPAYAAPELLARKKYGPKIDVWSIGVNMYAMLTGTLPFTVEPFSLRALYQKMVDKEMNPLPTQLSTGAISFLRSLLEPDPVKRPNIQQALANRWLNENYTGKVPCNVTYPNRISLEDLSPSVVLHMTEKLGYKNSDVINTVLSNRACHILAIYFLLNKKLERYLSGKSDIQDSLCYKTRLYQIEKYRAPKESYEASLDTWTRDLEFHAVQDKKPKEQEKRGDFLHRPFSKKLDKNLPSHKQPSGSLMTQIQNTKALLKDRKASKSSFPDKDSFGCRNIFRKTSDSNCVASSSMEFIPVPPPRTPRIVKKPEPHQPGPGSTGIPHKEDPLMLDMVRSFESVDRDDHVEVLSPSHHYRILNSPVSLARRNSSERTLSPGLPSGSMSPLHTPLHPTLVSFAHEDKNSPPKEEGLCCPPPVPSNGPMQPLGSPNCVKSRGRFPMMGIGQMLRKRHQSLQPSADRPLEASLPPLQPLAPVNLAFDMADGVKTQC
# [12] = target: T4, Serine/threonine-protein kinase Sgk1 (Homo sapiens) (UniProt O00141); test: Selectivity interaction (SelectScreen profiling (Invitrogen)) EUB0000607a SGK1; settings: at 2 µM
# T4 sequence (whole entry): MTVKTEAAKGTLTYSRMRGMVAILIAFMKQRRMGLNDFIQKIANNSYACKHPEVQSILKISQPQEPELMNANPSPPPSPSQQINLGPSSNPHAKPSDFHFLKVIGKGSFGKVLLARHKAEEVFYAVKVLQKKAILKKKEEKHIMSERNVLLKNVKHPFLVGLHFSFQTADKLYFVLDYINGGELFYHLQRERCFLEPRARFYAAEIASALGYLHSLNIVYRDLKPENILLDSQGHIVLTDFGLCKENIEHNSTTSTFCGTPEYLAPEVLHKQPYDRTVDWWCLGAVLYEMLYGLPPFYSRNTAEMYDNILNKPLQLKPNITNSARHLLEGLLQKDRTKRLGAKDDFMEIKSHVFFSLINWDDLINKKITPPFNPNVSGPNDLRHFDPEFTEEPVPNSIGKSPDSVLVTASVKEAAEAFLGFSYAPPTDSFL
# [13] = target: CDK12/Cyclin K (Homo sapiens) (UniProt O75909+Q9NYV4); test: Selectivity interaction (ProQinase) EUB0000171b CDK12; type: protein-complex assay
# Sequence of CDK12/Cyclin K (Homo sapiens) (O75909 whole entry, looked up): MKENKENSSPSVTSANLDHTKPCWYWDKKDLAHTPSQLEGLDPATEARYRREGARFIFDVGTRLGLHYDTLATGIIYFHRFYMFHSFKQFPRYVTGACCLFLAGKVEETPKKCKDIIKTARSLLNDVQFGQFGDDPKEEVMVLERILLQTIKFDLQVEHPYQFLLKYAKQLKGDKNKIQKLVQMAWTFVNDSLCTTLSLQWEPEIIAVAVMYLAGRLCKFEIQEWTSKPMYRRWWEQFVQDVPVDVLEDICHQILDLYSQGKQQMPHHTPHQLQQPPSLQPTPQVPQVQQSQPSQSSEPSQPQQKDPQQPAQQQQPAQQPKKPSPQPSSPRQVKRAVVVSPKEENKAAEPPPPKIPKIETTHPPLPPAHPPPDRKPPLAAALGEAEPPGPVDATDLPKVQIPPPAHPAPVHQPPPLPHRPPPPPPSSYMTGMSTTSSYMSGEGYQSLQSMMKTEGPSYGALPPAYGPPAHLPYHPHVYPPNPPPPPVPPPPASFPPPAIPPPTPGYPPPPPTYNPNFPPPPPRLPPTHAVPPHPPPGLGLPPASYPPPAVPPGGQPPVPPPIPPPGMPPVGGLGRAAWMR
# Sequence of CDK12/Cyclin K (Homo sapiens) (Q9NYV4 whole entry, looked up): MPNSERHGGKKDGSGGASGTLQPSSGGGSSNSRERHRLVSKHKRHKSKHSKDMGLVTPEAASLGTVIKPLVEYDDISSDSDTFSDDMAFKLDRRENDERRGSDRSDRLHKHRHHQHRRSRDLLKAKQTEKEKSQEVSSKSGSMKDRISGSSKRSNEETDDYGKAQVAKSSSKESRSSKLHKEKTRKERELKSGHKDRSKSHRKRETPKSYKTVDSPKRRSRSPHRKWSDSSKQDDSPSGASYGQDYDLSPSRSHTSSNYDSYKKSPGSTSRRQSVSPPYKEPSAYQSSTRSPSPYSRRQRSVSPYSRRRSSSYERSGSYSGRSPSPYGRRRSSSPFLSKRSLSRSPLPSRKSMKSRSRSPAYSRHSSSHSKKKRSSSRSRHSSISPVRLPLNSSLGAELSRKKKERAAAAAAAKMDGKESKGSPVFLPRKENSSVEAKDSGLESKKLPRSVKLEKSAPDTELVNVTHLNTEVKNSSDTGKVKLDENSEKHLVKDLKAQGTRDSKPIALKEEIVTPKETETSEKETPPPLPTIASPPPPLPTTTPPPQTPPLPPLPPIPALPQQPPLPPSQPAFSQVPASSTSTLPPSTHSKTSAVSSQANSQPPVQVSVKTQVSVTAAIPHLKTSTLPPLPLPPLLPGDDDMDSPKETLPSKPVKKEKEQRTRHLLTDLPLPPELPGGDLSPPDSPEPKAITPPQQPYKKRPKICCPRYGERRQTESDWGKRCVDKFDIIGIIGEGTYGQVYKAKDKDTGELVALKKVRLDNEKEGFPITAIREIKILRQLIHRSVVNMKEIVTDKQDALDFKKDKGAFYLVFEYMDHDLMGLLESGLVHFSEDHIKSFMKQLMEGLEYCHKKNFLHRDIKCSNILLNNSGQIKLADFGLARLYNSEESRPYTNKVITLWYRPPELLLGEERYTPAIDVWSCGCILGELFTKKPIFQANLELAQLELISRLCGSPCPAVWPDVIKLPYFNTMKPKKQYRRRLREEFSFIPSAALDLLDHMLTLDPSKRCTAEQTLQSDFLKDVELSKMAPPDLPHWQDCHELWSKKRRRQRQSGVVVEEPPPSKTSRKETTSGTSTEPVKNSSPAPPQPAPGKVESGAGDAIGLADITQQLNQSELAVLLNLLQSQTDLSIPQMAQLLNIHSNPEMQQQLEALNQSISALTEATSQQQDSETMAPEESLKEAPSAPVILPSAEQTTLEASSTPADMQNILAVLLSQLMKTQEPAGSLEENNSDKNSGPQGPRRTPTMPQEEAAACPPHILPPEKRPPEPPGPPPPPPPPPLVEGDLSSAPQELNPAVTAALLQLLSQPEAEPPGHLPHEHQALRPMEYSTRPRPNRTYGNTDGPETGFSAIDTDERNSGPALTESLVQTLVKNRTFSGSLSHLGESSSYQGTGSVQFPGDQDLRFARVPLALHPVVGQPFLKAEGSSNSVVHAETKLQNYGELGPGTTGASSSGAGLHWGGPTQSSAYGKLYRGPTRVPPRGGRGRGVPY
smiles,measurement,setting,value
COc1cc(Nc2nc(C)cc(-c3cnn4nc(OC)ccc34)n2)cc(C(F)(F)F)c1,% of control,[1],87%
same,% of control,[2],100%
same,% of control,[3],100%
CN1Cc2nccc(-c3cn(C)nc3-c3ccc(F)cc3)c2C1=O,% of inhibition,[4],-4%
O=C(NOC[C@H](O)CO)c1ccc(F)c(F)c1Nc1ccc(I)cc1F,% of control,[5],81%
same,% of control,[6],78%
CC[C@@H]1[C@H](F)C(=O)N[C@@H]1COc1nccc2cc(C(N)=O)c(OC)cc12 [ZIMLOVISERTIB],% of inhibition,[7]; at 0.01 µM,-4.6%
same,% of inhibition,[7]; at 0.04 µM,-2.6%
same,% of inhibition,[7]; at 0.2 µM,-18.1%
same,% of inhibition,[7]; at 1 µM,-20.7%
same,% of inhibition,[7]; at 5 µM,-27.3%
same,% of inhibition,[8],5.9%
CCc1cccc(CC)c1NC(=O)c1nn(C)c2c1CCc1cnc(Nc3ccc(C(=O)NC4CCN(C)CC4)cc3OC(F)(F)F)nc1-2,IC50,[9],> 10 µM
Cc1cc(F)c(C(=O)Nc2cccc(-c3nncn3C(C)C)n2)cc1-n1cnc(C2CC2)c1,% of control,[10],100%
CNC(=O)Nc1ccc(-c2nc(N3CC4CCC(C3)O4)c3cnn(C4CCC5(CC4)OCCO5)c3n2)cc1,% of control,[11],100%
same,% of inhibition,[12],-2%
C=CC(=O)Nc1cccc(C(=O)Nc2ccc(Nc3cc(-c4[nH]c(SC)nc4C)ccn3)cc2)c1,% of control,[13]; at 1 µM,93%
same,% of control,[13]; at 5 µM,57%
